These results are taken from ChEMBL document CHEMBL1140660, “Synthesis and structure-activity relationship of a novel, non-hydroxamate series of TNF-alpha converting enzyme inhibitors” (Bioorg Med Chem Lett, 2007).

Molecules are shown by their SMILES.

In assay [1] the target is Macrophage metalloelastase (Homo sapiens, UniProt P39900). Nature of the assay: Inhibition of MMP12.
The target of assay [2] is Disintegrin and metalloproteinase domain-containing protein 17 (Sus scrofa, UniProt O77636). In words: Inhibition of porcine TACE.
Sequence of Disintegrin and metalloproteinase domain-containing protein 17 (O77636 whole entry, the tested form may be a part): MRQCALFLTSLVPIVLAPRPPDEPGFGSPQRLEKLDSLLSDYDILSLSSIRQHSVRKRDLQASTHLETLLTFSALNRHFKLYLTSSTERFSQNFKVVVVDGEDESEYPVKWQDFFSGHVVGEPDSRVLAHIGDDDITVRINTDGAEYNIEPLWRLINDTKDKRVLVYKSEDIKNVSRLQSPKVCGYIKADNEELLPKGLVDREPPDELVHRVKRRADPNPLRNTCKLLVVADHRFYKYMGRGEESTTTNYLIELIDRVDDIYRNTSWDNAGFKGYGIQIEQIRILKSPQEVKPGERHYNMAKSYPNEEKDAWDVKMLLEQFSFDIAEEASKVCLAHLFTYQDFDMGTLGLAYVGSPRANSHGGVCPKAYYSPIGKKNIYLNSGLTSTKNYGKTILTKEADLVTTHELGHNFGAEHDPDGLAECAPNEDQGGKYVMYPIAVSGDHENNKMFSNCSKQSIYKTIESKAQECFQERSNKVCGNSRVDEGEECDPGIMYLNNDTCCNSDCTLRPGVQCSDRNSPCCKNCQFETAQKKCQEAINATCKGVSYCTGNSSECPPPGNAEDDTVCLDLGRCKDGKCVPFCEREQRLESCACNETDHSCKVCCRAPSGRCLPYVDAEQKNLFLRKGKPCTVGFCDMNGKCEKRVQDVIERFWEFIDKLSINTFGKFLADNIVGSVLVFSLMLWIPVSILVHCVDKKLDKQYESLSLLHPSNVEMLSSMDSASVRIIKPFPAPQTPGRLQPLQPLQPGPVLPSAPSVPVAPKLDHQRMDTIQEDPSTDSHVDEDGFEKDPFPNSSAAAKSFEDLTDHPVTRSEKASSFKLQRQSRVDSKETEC
For the next assay, the target named is Collagenase 3 (Homo sapiens, UniProt P45452). Nature of the assay: Inhibition of MMP13.
For a further assay, the target named is Stromelysin-1 (Homo sapiens, UniProt P08254). Nature of the assay: Inhibition of MMP3.
Sequence of Stromelysin-1 (P08254 whole entry): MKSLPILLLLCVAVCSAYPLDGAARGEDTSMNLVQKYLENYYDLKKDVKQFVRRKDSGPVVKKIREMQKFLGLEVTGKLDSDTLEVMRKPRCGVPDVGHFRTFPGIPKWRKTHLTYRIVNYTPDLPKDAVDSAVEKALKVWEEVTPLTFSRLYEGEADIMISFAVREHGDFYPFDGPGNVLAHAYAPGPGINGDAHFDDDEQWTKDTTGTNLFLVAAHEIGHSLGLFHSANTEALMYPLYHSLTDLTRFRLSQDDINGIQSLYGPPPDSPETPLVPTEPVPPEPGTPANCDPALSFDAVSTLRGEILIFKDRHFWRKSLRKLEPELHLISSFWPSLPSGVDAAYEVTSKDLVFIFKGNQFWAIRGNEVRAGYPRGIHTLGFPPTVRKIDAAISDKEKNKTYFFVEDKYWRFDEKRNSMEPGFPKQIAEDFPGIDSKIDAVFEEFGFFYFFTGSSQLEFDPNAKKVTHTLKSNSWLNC
Assay [3] addresses 72 kDa type IV collagenase (Homo sapiens, UniProt P08253). Nature of the assay: Inhibition of MMP2.
Another assay addresses T1, Matrilysin (Homo sapiens, UniProt P09237).
T1 sequence (P09237 whole entry): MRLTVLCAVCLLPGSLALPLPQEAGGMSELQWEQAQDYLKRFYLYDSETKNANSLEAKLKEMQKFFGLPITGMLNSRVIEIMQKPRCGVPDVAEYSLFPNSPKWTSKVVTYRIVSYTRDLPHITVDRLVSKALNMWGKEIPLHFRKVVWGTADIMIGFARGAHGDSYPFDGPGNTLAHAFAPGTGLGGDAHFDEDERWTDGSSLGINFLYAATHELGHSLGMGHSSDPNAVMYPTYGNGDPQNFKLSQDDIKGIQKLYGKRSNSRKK
Nature of the assay: Inhibition of MMP7.

Sequence of 72 kDa type IV collagenase (P08253 whole entry): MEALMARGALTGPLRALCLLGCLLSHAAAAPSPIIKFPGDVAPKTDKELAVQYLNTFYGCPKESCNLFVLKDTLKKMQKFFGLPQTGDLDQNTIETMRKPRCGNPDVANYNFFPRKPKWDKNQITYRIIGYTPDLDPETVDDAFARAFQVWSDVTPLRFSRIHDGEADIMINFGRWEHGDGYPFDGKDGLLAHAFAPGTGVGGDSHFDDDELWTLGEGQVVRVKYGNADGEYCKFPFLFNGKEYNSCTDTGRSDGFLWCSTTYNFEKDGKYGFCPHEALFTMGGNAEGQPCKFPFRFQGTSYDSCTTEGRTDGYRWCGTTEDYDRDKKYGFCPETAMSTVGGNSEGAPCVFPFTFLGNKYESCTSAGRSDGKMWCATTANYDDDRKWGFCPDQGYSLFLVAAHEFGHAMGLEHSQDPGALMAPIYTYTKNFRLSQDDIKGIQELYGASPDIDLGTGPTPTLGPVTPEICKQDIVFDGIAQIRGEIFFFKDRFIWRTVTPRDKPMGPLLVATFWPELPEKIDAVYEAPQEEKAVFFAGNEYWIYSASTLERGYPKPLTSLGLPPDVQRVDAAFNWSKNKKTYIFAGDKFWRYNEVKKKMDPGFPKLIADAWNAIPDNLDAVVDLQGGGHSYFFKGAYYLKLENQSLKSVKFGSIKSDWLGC
Sequence of Macrophage metalloelastase (P39900 whole entry, the tested form may be a part): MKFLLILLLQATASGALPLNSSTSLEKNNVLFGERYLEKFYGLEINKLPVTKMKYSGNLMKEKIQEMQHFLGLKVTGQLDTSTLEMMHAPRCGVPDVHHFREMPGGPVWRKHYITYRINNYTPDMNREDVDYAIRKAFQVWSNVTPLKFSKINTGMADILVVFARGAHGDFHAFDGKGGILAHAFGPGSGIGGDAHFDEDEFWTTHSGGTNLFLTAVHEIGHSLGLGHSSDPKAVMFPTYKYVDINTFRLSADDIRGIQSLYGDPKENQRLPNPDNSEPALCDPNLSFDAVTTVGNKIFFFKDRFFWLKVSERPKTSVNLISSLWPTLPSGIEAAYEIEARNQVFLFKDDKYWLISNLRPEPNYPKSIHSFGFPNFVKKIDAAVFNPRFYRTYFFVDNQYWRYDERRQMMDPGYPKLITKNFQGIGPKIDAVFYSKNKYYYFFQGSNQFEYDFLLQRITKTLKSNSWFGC

As a reminder, the Ki is the equilibrium dissociation constant of an inhibitor or competing ligand from its target. A low value points to a stronger hold on the target. As usually defined, the IC50 is the point on the concentration scale where inhibition reaches its midpoint. On to `Cc1cc(COc2ccc(C(=O)NC3(Cc4n[nH]c(=S)[nH]4)CCOCC3)cc2)c2ccccc2n1`, for which the Ki came out at 0.223 µM in assay [1]; 0.753 µM on Collagenase 3; 2.1 µM at Stromelysin-1; 1.6 µM in assay [3]; 0.635 µM on Matrilysin. In assay [2], the IC50 is 0.024 µM.
As for `Cc1cc(COc2ccc([C@]3(N)CCN([C@H](CC(C)C)c4n[nH]c(=S)[nH]4)C3=O)cc2)c2ccccc2n1`, the Ki in assay [1] is over 6.02 µM; at Collagenase 3, over 5.03 µM; on Stromelysin-1, over 4.5 µM; in assay [3] it was over 3.33 µM; on Matrilysin it was over 6.37 µM. Also, the IC50 in assay [2] was over 1 µM.
As for `Cc1cc(COc2ccc(C(=O)NCCc3n[nH]c(=S)[nH]3)cc2)c2ccccc2n1`, the Ki in assay [1] was over 6.02 µM; on Collagenase 3 it was over 5.03 µM; on Stromelysin-1 it was over 4.5 µM; in assay [3], over 3.33 µM; at Matrilysin it was over 6.37 µM. The compound also returned an IC50 in assay [2] of 0.21 µM.
In the case of `O=C(NCCCc1n[nH]c(=S)[nH]1)c1ccc(OCc2ccnc3ccccc23)cc1`, the Ki is over 6.02 µM in assay [1]; over 5.03 µM on Collagenase 3; over 4.5 µM at Stromelysin-1; over 3.33 µM in assay [3]; over 6.37 µM on Matrilysin. Moreover, the IC50 in assay [2] was 0.294 µM.
For `Cc1cc(COc2ccc(C(=O)NC(C)(C)Cc3n[nH]c(=S)[nH]3)cc2)c2ccccc2n1`, the Ki in assay [1] is over 6.02 µM; on Collagenase 3 it was over 5.03 µM; at Stromelysin-1, over 4.5 µM; in assay [3] it was over 3.33 µM; at Matrilysin, over 6.37 µM. Moreover, the IC50 in assay [2] came out at 0.055 µM.
Take `Cc1cc(COc2ccc(C(=O)NCc3n[nH]c(=S)[nH]3)cc2)c2ccccc2n1`: the Ki is over 6.02 µM in assay [1]; over 5.03 µM on Collagenase 3; over 4.5 µM on Stromelysin-1; over 3.33 µM in assay [3]; over 6.37 µM at Matrilysin. Besides, the IC50 in assay [2] was over 1 µM.
On to `Cc1cc(COc2ccc(C(=O)NC3(Cc4n[nH]c(=S)[nH]4)CCN(C(=O)OC(C)(C)C)CC3)cc2)c2ccccc2n1`, for which the Ki in assay [1] was over 6.02 µM; on Collagenase 3, over 5.03 µM; on Stromelysin-1, over 4.5 µM; in assay [3], over 3.33 µM; at Matrilysin it was over 6.37 µM. This compound also came in with an IC50 in assay [2] of 0.036 µM.
With `Cc1cc(COc2ccc(C(=O)N[C@@H]3CN(C(=O)OC(C)(C)C)C[C@@H]3c3n[nH]c(=S)[nH]3)cc2)c2ccccc2n1` (relative stereo), the Ki in assay [1] was 3.56 µM; on Collagenase 3, over 5.03 µM; at Stromelysin-1, over 4.5 µM; in assay [3], over 3.33 µM; on Matrilysin it was over 6.37 µM. The midpoint of inhibition in assay [2], the IC50, lay at 0.014 µM.
For `CC(=O)N1C[C@H](c2n[nH]c(=S)[nH]2)[C@H](NC(=O)c2ccc(OCc3cc(C)nc4ccccc34)cc2)C1` (relative stereo), the Ki in assay [1] was over 6.02 µM; on Collagenase 3, over 5.03 µM; at Stromelysin-1, over 4.5 µM; in assay [3], over 3.33 µM; on Matrilysin, over 6.37 µM. This compound gave an IC50 in assay [2] of 0.0015 µM.
Consider `Cc1cc(COc2ccc(C(=O)N[C@@H]3CCOC[C@@H]3c3n[nH]c(=S)[nH]3)cc2)c2ccccc2n1` (relative stereo), for which the Ki in assay [1] is over 6.02 µM; at Collagenase 3 it was over 5.03 µM; on Stromelysin-1 it was over 4.5 µM; in assay [3], over 3.33 µM; on Matrilysin, over 6.37 µM. In assay [2], this compound came in with an IC50 of 0.0081 µM.
Consider `Cc1cc(COc2ccc(C(=O)N[C@@H]3CCNC[C@@H]3c3n[nH]c(=S)[nH]3)cc2)c2ccccc2n1` (relative stereo), for which the Ki in assay [1] is over 6.02 µM; at Collagenase 3, over 5.03 µM; at Stromelysin-1, over 4.5 µM; in assay [3], over 3.33 µM; at Matrilysin it was over 6.37 µM. Moreover, the IC50 in assay [2] was determined as 0.043 µM.
For `Cc1cc(COc2ccc(C(=O)N[C@@H]3CN(C(=O)OC(C)(C)C)CC[C@@H]3c3n[nH]c(=S)[nH]3)cc2)c2ccccc2n1` (relative stereo), the Ki in assay [1] is over 6.02 µM; at Collagenase 3, over 5.03 µM; on Stromelysin-1 it was over 4.5 µM; in assay [3] it was over 3.33 µM; on Matrilysin it was over 6.37 µM. This compound also showed an IC50 in assay [2] of 0.075 µM.
With `CC(=O)N1CC[C@H](c2n[nH]c(=S)[nH]2)[C@H](NC(=O)c2ccc(OCc3cc(C)nc4ccccc34)cc2)C1` (relative stereo), the Ki is over 6.02 µM in assay [1]; 3.14 µM on Collagenase 3; over 4.5 µM at Stromelysin-1; over 3.33 µM in assay [3]; over 6.37 µM at Matrilysin. In assay [2], this compound had an IC50 of 0.0025 µM.
As to `CCCN1CC[C@H](c2n[nH]c(=S)[nH]2)[C@H](NC(=O)c2ccc(OCc3cc(C)nc4ccccc34)cc2)C1` (relative stereo), the Ki in assay [1] was over 6.02 µM; on Collagenase 3, over 5.03 µM; on Stromelysin-1, over 4.5 µM; in assay [3], over 3.33 µM; on Matrilysin it was over 6.37 µM. This compound also displayed a 50% inhibitory concentration (IC50) in assay [2] of 0.015 µM.
Consider `Cc1cc(COc2ccc(C(=O)N[C@@H]3CN(S(C)(=O)=O)CC[C@@H]3c3n[nH]c(=S)[nH]3)cc2)c2ccccc2n1` (relative stereo), for which the Ki in assay [1] is over 6.02 µM; on Collagenase 3, over 5.03 µM; at Stromelysin-1 it was over 4.5 µM; in assay [3], over 3.33 µM; on Matrilysin, over 6.37 µM. In assay [2], this compound had an IC50 of 0.028 µM.
For `Cc1cc(COc2ccc(C(=O)N[C@@H]3CN(C(C)C)CC[C@@H]3c3n[nH]c(=S)[nH]3)cc2)c2ccccc2n1` (relative stereo), the Ki in assay [1] is over 6.02 µM; on Collagenase 3 it was over 5.03 µM; at Stromelysin-1, over 4.5 µM; in assay [3] it was over 3.33 µM; at Matrilysin, over 6.37 µM. The IC50 in assay [2] amounted to 0.031 µM.
In the case of `C#CCN1CC[C@H](c2n[nH]c(=S)[nH]2)[C@H](NC(=O)c2ccc(OCc3cc(C)nc4ccccc34)cc2)C1` (relative stereo), the Ki in assay [1] is over 6.02 µM; at Collagenase 3, over 5.03 µM; at Stromelysin-1, over 4.5 µM; in assay [3], over 3.33 µM; at Matrilysin, over 6.37 µM. In addition, in assay [2], the IC50 is 0.073 µM.
In the case of `Cc1cc(COc2ccc(C(=O)N[C@@H]3CNCC[C@@H]3c3n[nH]c(=S)[nH]3)cc2)c2ccccc2n1` (relative stereo), the Ki in assay [1] is over 6.02 µM; on Collagenase 3, over 5.03 µM; on Stromelysin-1 it was over 4.5 µM; in assay [3], over 3.33 µM; at Matrilysin it was over 6.37 µM. Also, in assay [2], inhibition was half-maximal at 0.0094 µM (IC50).
`Cc1cc(COc2ccc(C(=O)N[C@@H]3CN(C)CC[C@@H]3c3n[nH]c(=S)[nH]3)cc2)c2ccccc2n1` (relative stereo): the Ki in assay [1] is 0.958 µM; at Collagenase 3, over 5.03 µM; on Stromelysin-1, over 4.5 µM; in assay [3] it was over 3.33 µM; at Matrilysin, 5.37 µM. The IC50 in assay [2] was determined as 0.016 µM.
As to `Cc1cc(COc2ccc(C(=O)N[C@@H]3CCC[C@@H]3c3n[nH]c(=S)[nH]3)cc2)c2ccccc2n1` (relative stereo), the Ki is over 6.02 µM in assay [1]; over 5.03 µM on Collagenase 3; over 4.5 µM on Stromelysin-1; over 3.33 µM in assay [3]; over 6.37 µM at Matrilysin. The same compound came in with an IC50 in assay [2] of 0.041 µM.
With `Cc1cc(COc2ccc(C(=O)N[C@@H]3CNC[C@@H]3c3n[nH]c(=S)[nH]3)cc2)c2ccccc2n1` (relative stereo), the Ki is over 6.02 µM in assay [1]; over 5.03 µM on Collagenase 3; over 4.5 µM on Stromelysin-1; over 3.33 µM in assay [3]; over 6.37 µM on Matrilysin. In assay [2], this compound gave an IC50 of 0.092 µM.
For `CCCN1C[C@H](c2n[nH]c(=S)[nH]2)[C@H](NC(=O)c2ccc(OCc3cc(C)nc4ccccc34)cc2)C1` (relative stereo), the Ki in assay [1] was over 6.02 µM; at Collagenase 3, 2.46 µM; on Stromelysin-1, over 4.5 µM; in assay [3], over 3.33 µM; at Matrilysin it was over 6.37 µM. In assay [2], this compound gave an IC50 of 0.0099 µM.
